Source: the supplement of paper PMC10307832

How the values were obtained:
Experiment in all cases: relative viability (nuclei count vs DMSO), 5 days (fraction); higher = more cells survive
KIN001-266 + Navitoclax = compound: CCN1CCC(CC1)N2C=C(N=N2)CNC3=CC4=C(C(=CN=C4C(=C3)Cl)C#N)NC5=CC(=C(C=C5)F)Cl [KIN001-266] + CC1(C)CCC(c2ccc(Cl)cc2)=C(CN2CCN(c3ccc(C(=O)NS(=O)(=O)c4ccc(N[C@H](CCN5CCOCC5)CSc5ccccc5)c(S(=O)(=O)C(F)(F)F)c4)cc3)CC2)C1 [Navitoclax] (partner 0.5 µM)
Summary of the method: (§1)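 Five library-drug doses in √10 steps were combined with a fixed anchor-drug dose, or a single drug was given alone, by pin tool to lung cancer cell lines in 1536-well plates the day after seeding. Nuclei were stained and counted after 5 days. Relative viability is the nuclei count in treated wells over that in vehicle wells, taken as the median of duplicate plates.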

KIN001-266 + Tozasertib = compound: CCN1CCC(CC1)N2C=C(N=N2)CNC3=CC4=C(C(=CN=C4C(=C3)Cl)C#N)NC5=CC(=C(C=C5)F)Cl [KIN001-266] + Cc1cc(Nc2cc(N3CCN(C)CC3)nc(Sc3ccc(NC(=O)C4CC4)cc3)n2)n[nH]1 [Tozasertib] (partner 0.1 µM)
Summary of the method: as §1

KIN001-266 + Crizotinib = compound: CCN1CCC(CC1)N2C=C(N=N2)CNC3=CC4=C(C(=CN=C4C(=C3)Cl)C#N)NC5=CC(=C(C=C5)F)Cl [KIN001-266] + C[C@@H](Oc1cc(-c2cnn(C3CCNCC3)c2)cnc1N)c1c(Cl)ccc(F)c1Cl [Crizotinib] (partner 1 µM)
Summary of the method: as §1

KIN001-266 + Vorinostat = compound: CCN1CCC(CC1)N2C=C(N=N2)CNC3=CC4=C(C(=CN=C4C(=C3)Cl)C#N)NC5=CC(=C(C=C5)F)Cl [KIN001-266] + O=C(CCCCCCC(=O)Nc1ccccc1)NO [Vorinostat] (partner 1 µM)
Summary of the method: as §1

Cell Line	relative viability (KIN001-266 + Navitoclax; first compound 0.08 µM)	relative viability (KIN001-266 + Navitoclax; first compound 0.253 µM)	relative viability (KIN001-266 + Navitoclax; first compound 0.8 µM)	relative viability (KIN001-266 + Navitoclax; first compound 2.53 µM)	relative viability (KIN001-266 + Navitoclax; first compound 8 µM)	relative viability (KIN001-266 + Tozasertib; first compound 0.08 µM)	relative viability (KIN001-266 + Tozasertib; first compound 0.253 µM)	relative viability (KIN001-266 + Tozasertib; first compound 0.8 µM)	relative viability (KIN001-266 + Tozasertib; first compound 2.53 µM)	relative viability (KIN001-266 + Tozasertib; first compound 8 µM)	relative viability (KIN001-266 + Crizotinib; first compound 0.08 µM)	relative viability (KIN001-266 + Crizotinib; first compound 0.253 µM)	relative viability (KIN001-266 + Crizotinib; first compound 0.8 µM)	relative viability (KIN001-266 + Crizotinib; first compound 2.53 µM)	relative viability (KIN001-266 + Crizotinib; first compound 8 µM)	relative viability (KIN001-266 + Vorinostat; first compound 0.08 µM)	relative viability (KIN001-266 + Vorinostat; first compound 0.253 µM)	relative viability (KIN001-266 + Vorinostat; first compound 0.8 µM)	relative viability (KIN001-266 + Vorinostat; first compound 2.53 µM)	relative viability (KIN001-266 + Vorinostat; first compound 8 µM)
COR-L 105	0.725	0.681	0.805	0.946	0.817	0.388	0.322	0.381	0.342	0.296	0.817	0.962	0.82	0.969	0.726	0.796	1.07	0.899	0.594	0.814
LK-2	0.956	0.917	1.11	0.844	1.13	0.182	0.18	0.174	0.185	0.154	0.229	–	0.219	–	0.239	0.419	0.395	0.417	0.531	0.524
NCI-H727	0.337	0.557	0.484	0.577	0.183	0.759	0.584	0.552	0.715	0.467	0.79	0.812	0.753	0.825	0.405	1.13	1.29	1.31	1.08	1.14
RERF-LC-KJ	0.989	0.81	0.937	0.849	0.651	0.499	0.551	0.557	0.359	0.299	0.722	0.899	0.803	0.777	0.813	0.765	0.779	0.65	0.682	0.555
NCI-H2023	0.956	1	1.08	0.93	1.05	0.39	0.341	0.419	0.292	0.184	0.732	0.603	0.576	0.648	0.459	0.676	0.871	0.675	0.636	0.539
NCI-H322M	1.19	1.3	1.24	1.05	1.18	0.451	0.554	0.513	0.433	0.458	0.796	0.968	0.957	0.819	0.843	0.877	0.91	0.848	0.758	0.788
NCI-H1666	1.06	0.983	0.852	0.91	0.847	0.586	0.642	0.605	0.572	0.486	0.963	1.21	1.01	0.964	0.797	1.04	1.06	1.01	1.03	1
NCI-H1648	–	–	–	–	–	0.711	0.513	0.436	0.558	0.485	–	–	–	–	–	0.438	0.502	0.515	0.453	0.422
